Source: the supplement of paper PMC11451515

System: SEM cells
Test: cell viability relative to DMSO control; higher = less cytotoxic
Conditions: 48 h
Outline: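 Viability is a per-plate percentage relative to DMSO wells, with cell-free wells as background. CellTiter-Glo One luminescence was read after 48 h at 37°C on 1536-well plates (5 μl) of NOMO1 or SEM (500 cells/well) or P12-Ichikawa (1000 cells/well) leukemia cells. The cells had been adapted for at least four passages in each medium and pin-dosed with library compounds in DMSO from 47 μM to 0.79 nM in 11 threefold steps.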

[1] = HPLM + 10% dialyzed FBS, 0.000781 µM
[2] = HPLM + 10% dialyzed FBS, 0.00234 µM
[3] = HPLM + 10% dialyzed FBS, 0.00702 µM
[4] = HPLM + 10% dialyzed FBS, 0.0211 µM
[5] = HPLM + 10% dialyzed FBS, 0.0632 µM
[6] = HPLM + 10% dialyzed FBS, 0.19 µM
[7] = HPLM + 10% dialyzed FBS, 0.569 µM
[8] = HPLM + 10% dialyzed FBS, 1.71 µM
[9] = HPLM + 10% dialyzed FBS, 5.12 µM
[10] = HPLM + 10% dialyzed FBS, 15.4 µM
[11] = HPLM + 10% dialyzed FBS, 46.1 µM
[12] = RPMI 5 mM glucose + 10% FBS, 0.000781 µM
[13] = RPMI 5 mM glucose + 10% FBS, 0.00234 µM
[14] = RPMI 5 mM glucose + 10% FBS, 0.00702 µM
[15] = RPMI 5 mM glucose + 10% FBS, 0.0211 µM
[16] = RPMI 5 mM glucose + 10% FBS, 0.0632 µM
[17] = RPMI 5 mM glucose + 10% FBS, 0.19 µM
[18] = RPMI 5 mM glucose + 10% FBS, 0.569 µM
[19] = RPMI 5 mM glucose + 10% FBS, 1.71 µM
[20] = RPMI 5 mM glucose + 10% FBS, 5.12 µM
[21] = RPMI 5 mM glucose + 10% FBS, 15.4 µM
[22] = RPMI 5 mM glucose + 10% FBS, 46.1 µM
[23] = RPMI 5 mM glucose + 10% dialyzed FBS, 0.000781 µM
[24] = RPMI 5 mM glucose + 10% dialyzed FBS, 0.00234 µM
[25] = RPMI 5 mM glucose + 10% dialyzed FBS, 0.00702 µM
[26] = RPMI 5 mM glucose + 10% dialyzed FBS, 0.0211 µM
[27] = RPMI 5 mM glucose + 10% dialyzed FBS, 0.0632 µM
[28] = RPMI 5 mM glucose + 10% dialyzed FBS, 0.19 µM
[29] = RPMI 5 mM glucose + 10% dialyzed FBS, 0.569 µM
[30] = RPMI 5 mM glucose + 10% dialyzed FBS, 1.71 µM
[31] = RPMI 5 mM glucose + 10% dialyzed FBS, 5.12 µM
[32] = RPMI 5 mM glucose + 10% dialyzed FBS, 15.4 µM
[33] = RPMI 5 mM glucose + 10% dialyzed FBS, 46.1 µM

Structure (SMILES) | cell viability [1] [%] | cell viability [2] [%] | cell viability [3] [%] | cell viability [4] [%] | cell viability [5] [%] | cell viability [6] [%] | cell viability [7] [%] | cell viability [8] [%] | cell viability [9] [%] | cell viability [10] [%] | cell viability [11] [%] | cell viability [12] [%] | cell viability [13] [%] | cell viability [14] [%] | cell viability [15] [%] | cell viability [16] [%] | cell viability [17] [%] | cell viability [18] [%] | cell viability [19] [%] | cell viability [20] [%] | cell viability [21] [%] | cell viability [22] [%] | cell viability [23] [%] | cell viability [24] [%] | cell viability [25] [%] | cell viability [26] [%] | cell viability [27] [%] | cell viability [28] [%] | cell viability [29] [%] | cell viability [30] [%] | cell viability [31] [%] | cell viability [32] [%] | cell viability [33] [%]
Cc1cnc(Nc2ccc(OCCN3CCCC3)cc2)nc1Nc1cccc([S+](=O)([O-])NC(C)(C)C)c1 | 83.6 | 93.2 | 93.9 | 88.2 | 96.3 | 89.5 | 96.7 | 102 | 96.1 | 68.2 | 67.2 | 88.9 | 95.8 | 95.4 | 111 | 104 | 106 | 108 | 88.5 | 89.9 | 90.1 | 77.2 | 83.5 | 97.3 | 98.8 | 106 | 98.2 | 99.2 | 106 | 98.1 | 82.4 | 84.5 | 71.9
COC(=O)N[C@H](C(=O)N[C@@H](Cc1ccccc1)[C@@H](O)CN(Cc1ccc(-c2ccccn2)cc1)NC(=O)[C@@H](NC(=O)OC)C(C)(C)C)C(C)(C)C |  |  |  |  |  |  |  |  |  |  |  | 103 | 123 | 152 | 111 | 136 | 110 | 122 | 110 | 128 | 116 | 96.7 | 101 | 118 | 136 | 123 | 132 | 131 | 110 | 113 | 122 | 123 | 79.9
c1cc(OCCN2CCCCC2)cc(-c2n[nH]c3ccc(-c4nc[nH]n4)cc23)c1 | 109 | 102 | 113 | 107 | 120 | 105 | 82.8 | 57.6 | 99.9 | 87.8 | 60.4 | 95.9 | 99.9 | 104 | 97.8 | 107 | 110 | 90.6 | 54.4 | 97.3 | 92.1 | 47.6 | 83.9 | 105 | 99.3 | 119 | 126 | 107 | 103 | 48.8 | 89.4 | 76.7 | 53.7
N#Cc1c(C2CCNCC2)cc(-c2c(O)cccc2OCC2CC2)nc1N | 108 | 106 | 107 | 109 | 114 | 115 | 108 | 108 | 100 | 77.4 | 34.2 | 103 | 107 | 106 | 115 | 121 | 110 | 97.3 | 118 | 102 | 82.8 | 29 | 98.7 | 108 | 104 | 104 | 106 | 108 | 101 | 98.1 | 85.3 | 72.6 | 43.7
COc1ccc(-c2nc3cc(C4=NNC(=O)CC4C)ccc3[nH]2)cc1 (stereo unspecified) | 86.8 | 90.5 | 99.6 | 107 | 109 | 106 | 98.7 | 101 | 111 | 92.5 | 75.4 | 92.2 | 95.2 | 105 | 102 | 112 | 121 | 111 | 120 | 101 | 119 | 90.8 | 93.6 | 91.6 | 111 | 110 | 113 | 110 | 107 | 120 | 110 | 115 | 84.4
Nc1ccc([S+](=O)([O-])Nc2ccccn2)cc1 | 77.7 | 91.7 | 91.3 | 93.7 | 82.7 | 91 | 93.6 | 98.8 | 88.5 | 97 | 96.9 | 100 | 104 | 115 | 118 | 112 | 108 | 122 | 119 | 124 | 109 | 111 | 98.6 | 109 | 100 | 101 | 113 | 101 | 99 | 108 | 121 | 103 | 115
Cn1c(=O)c2c(ncn2CC(O)CO)n(C)c1=O (stereo unspecified) | 87.4 | 101 | 116 | 92.6 | 104 | 109 | 113 | 111 | 96 | 108 | 124 | 106 | 96.7 | 120 | 101 | 120 | 123 | 113 | 111 | 111 | 111 | 122 | 93.1 | 120 | 99.3 | 110 | 116 | 113 | 121 | 133 | 135 | 125 | 137
O=C1[O][Pt]2([NH]C3CCCCC3[NH]2)[O]C1=O (stereo unspecified) | 95.9 | 110 | 102 | 107 | 105 | 108 | 101 | 91.5 | 27 | 3.68 | 4.13 | 74 | 77.5 | 69 | 66.6 | 83.8 | 84 | 81.7 | 60.3 | 15 | 2.66 | 2.68 | 84.7 | 97.5 | 104 | 114 | 108 | 102 | 118 | 91.3 | 42.6 | 3.5 | 3.34
Cn1cc(-c2ccc3ncc(Cc4ccc5ncccc5c4)n3n2)cn1 | 93.2 | 108 | 103 | 98.8 | 101 | 112 | 94.3 | 99.5 | 89.9 | 72.8 | 71 | 113 | 117 | 122 | 109 | 131 | 122 | 115 | 107 | 123 | 74 | 79.4 | 96.2 | 103 | 102 | 101 | 112 | 109 | 111 | 106 | 98.8 | 71.2 | 67.3
C[Se]CCC(N)C(=O)O (stereo unspecified) | 50.5 | 87.2 | 86.1 | 94.7 | 75.6 | 71.3 | 82.8 | 71.5 | 86.4 | 78.1 | 72 | 65.1 | 83.9 | 107 | 95.4 | 89.8 | 95 | 85.9 | 88.5 | 103 | 100 | 98.1 | 51.5 | 100 | 96.6 | 94.4 | 73.1 | 101 | 90.4 | 84.1 | 94.2 | 100 | 88.7
O=C(c1ccc(F)cc1)C1CCN(CCn2c(=O)[nH]c3ccccc3c2=O)CC1 | 97.6 | 103 | 112 | 101 | 101 | 98.5 | 119 | 109 | 104 | 95.7 | 93 | 118 | 121 | 126 | 126 | 106 | 120 | 120 | 119 | 119 | 125 | 116 |  |  |  |  |  |  |  |  |  |  | 
CC1OC(OC/2=C(/OC3=C(C(=CC(=C3)O)O)C2=O)C4=CC=C(O)C=C4)C(O)C(OC(C)=O)C1OC(C)=O (stereo unspecified) | 117 | 120 | 116 | 113 | 105 | 112 | 106 | 113 | 106 | 102 | 77.7 |  |  |  |  |  |  |  |  |  |  |  | 100 | 101 | 114 | 102 | 110 | 103 | 98.1 | 95.5 | 108 | 90.5 | 77.1
NC/1=N/C(=O)N(/C=C1)[C@H]2CC[C@@H](CO)O2 | 78.3 | 95 | 93.8 | 103 | 101 | 104 | 109 | 121 | 103 | 23 | 72.2 | 71.7 | 88.8 | 103 | 92 | 88.3 | 101 | 93.4 | 96.1 | 110 | 17 | 80.1 | 68.7 | 87.4 | 94.3 | 94.3 | 102 | 88.1 | 88.6 | 98.4 | 78 | 17.2 | 53.4
CCOc1ccccc1OCCNC(C)Cc1ccc(OC)c([S+](N)(=O)[O-])c1 (stereo unspecified) | 87.1 | 82.9 | 101 | 103 | 116 | 101 | 125 | 103 | 119 | 90.9 | 85.8 | 93.4 | 85.9 | 101 | 118 | 104 | 106 | 115 | 114 | 107 | 97.6 | 105 | 112 | 88.9 | 115 | 126 | 115 | 109 | 130 | 129 | 108 | 127 | 114
N=C(N)c1ccc(OCCCCCOc2ccc(C(=N)N)cc2)cc1 | 72.7 | 115 | 112 | 125 | 123 | 127 | 118 | 122 | 106 | 101 | 46.4 |  |  |  |  |  |  |  |  |  |  |  | 64.9 | 111 | 146 | 138 | 121 | 118 | 105 | 103 | 113 | 120 | 57.8
CNC(=O)c1cc(Oc2ccc(NC(=O)Nc3cc(C(C)(C)C)nn3-c3ccc4ncccc4c3)c(F)c2)ccn1 | 98.3 | 113 | 118 | 113 | 116 | 102 | 80.5 | 66.6 | 61.7 | 52.2 | 41.6 | 108 | 114 | 107 | 115 | 122 | 99.2 | 85.3 | 61.3 | 50.5 | 39.2 | 26.2 |  |  |  |  |  |  |  |  |  |  | 
c1ccc2c(-c3cnn4cc(-c5ccc(N6CCNCC6)cc5)cnc34)ccnc2c1 | 75.6 | 78.2 | 121 | 125 | 139 | 130 | 122 | 100 | 2.9 | 1.26 | 2.65 | 84 | 71.6 | 140 | 138 | 153 | 122 | 121 | 97.1 | 61 | 7.66 | 3.32 | 69 | 72.2 | 118 | 147 | 151 | 142 | 114 | 89.2 | 66.7 | 45.9 | 3.66
